Assay results: patent US5602167A, “4-arylcyclohepta[c] pyrrole analgesics” (Ortho Pharmaceutical Corporation, priority 1995, dated 1997)

Assay: Mouse Acetylcholine Bromide-Induced Abdominal Constriction Assay
Format: in vivo
Conditions: 30 mg/kg po, 30 min before 5.5 mg/kg i.p. acetylcholine bromide, % analgesia

| SMILES | % Inhibition at 30 mg/kg (route) |
| --- | --- |
| CN1C[C@H]2CCCC[C@@H](c3ccc(F)cc3)[C@H]2C1 (relative stereo) [Cp-7] | 100% |
| COc1cccc([C@@]2(O)CCCC[C@@H]3CN(C)C[C@@H]32)c1 (relative stereo) [Cp-2] | 80% |
| CN1C[C@H]2CCCC[C@](O)(c3ccc(F)cc3)[C@H]2C1 (relative stereo) [Cp-3] | 100% |
| CN1C[C@H]2CCCC[C@H](c3ccc(F)cc3)[C@H]2C1 (relative stereo) [Cp-6] | 93% |
| CN1C[C@H]2CCCC[C@@H](c3ccccc3)[C@H]2C1 (relative stereo) [Cp-5] | 100% |
| CN1C[C@H]2CCCC[C@H](c3ccccc3)[C@H]2C1 (relative stereo) [Cp-4] | 80% |
| CN1C[C@H]2CCCC[C@](O)(c3ccccc3)[C@H]2C1 (relative stereo) [Cp-1] | 93% |

Same assay, conditions: 30 mg/kg sc, 5.5 mg/kg i.p. acetylcholine bromide, % analgesia

| SMILES | % Inhibition at 30 mg/kg (route) |
| --- | --- |
| COc1cccc([C@H]2CCCC[C@@H]3CN(C)C[C@@H]32)c1 (relative stereo) [Cp-8] | 100% |
| COc1cccc([C@@H]2CCCC[C@@H]3CN(C)C[C@@H]32)c1 (relative stereo) [Cp-9] | 90% |
